These results are taken from patent publication US5574166A, “Crystalline form of 2-(2-hydroxy-3-α-cumyl-5-tert-octylphenyl)-2H-benzotriazole” (Ciba-Geigy Corporation, priority 1995, dated 1996).

Data set [1] in a line: Solubility of benzotriazole UV absorbers in organic solvents (percent solids of saturated filtrate, ASTM D 2369-81). As to conditions: for Solubility in organic solvents (in words): organic / coatings solvents. How it is done:
The relative solubility of three different benzotriazole UV absorbers in a five typical organic solvents is measured by dissolving the benzotriazole UV absorber in 50-100 mL of five different solvents till the solutions become supersaturated. This is seen when the benzotriazole begins to settle to the bottom of the test flask. The supersaturated solutions are allowed to remain undisturbed overnight. Then, the top layer is decanted and filtered. […] The higher the percent solids found indicates a more soluble benzotriazole.

Data set [2] in a line: Volatility of UV absorber. As to conditions: long-term coating uses. The format is physicochemical.
The nature of data set [3]: Photostability of UV absorber in gelatine layer on polyester base (Example 21). The format is physicochemical. The note with it: for photostability (in words): 30-120 kJ/cm^2 exposure; for Dmax (maximum density in the range 330-380 nm): before exposure, gelatine layer. As to the method:
The amount of UV absorber shown in the table below is dissolved in 2 ml of ethyl acetate. 1 ml of this solution is mixed with 9 ml of an aqueous gelatine solution [comprising 27.6 g/l of gelatine and 6.8 g/l of an 8% aqueous solution of 4,8-diisobutylnaphthalene-2-sulfonic acid (sodium salt) as wetting agent]. This mixture is emulsified for 3 minutes by means of ultrasound. 7.5 ml of this UV absorber emulsion are mixed with 4.5 ml of an aqueous curing agent solution (comprising 0.24% of 2-hydroxy-4,6-dichloro-s-triazine, potassium salt). 8 ml of this emulsion are poured onto a polyester base (13×18 cm). The casting is cured for 7 days at room temperature. A UV spectrometer is then used to determine the values for the maximum density in the range from 330-380 nm. The sample is then exposed in an Arias exposure unit with a total of 30, 60, 90 and 120 kJ/cm^2, the maximum density is remeasured, and the difference (-ΔD in %) between the corresponding values is calculated.

Data set [4] is described as follows: Handling properties and storage stability of the solid form. The format is physicochemical. As to conditions: apparent density.
The nature of data set [5]: Light stabilization effectiveness (general statement). The note with it: versus 2-[2-hydroxy-3,5-di(α-cumyl)phenyl]-2H-benzotriazole.
Where [6] appears, read: EXXATE ® 600 (hexyl acetate from Exxon).
The mark [7] stands for this setting: PM acetate (1-methoxy-2-propyl acetate).
Setting [8] is: PM solvent (1-methoxy-2-propanol).

Entries after “also recorded” stand apart in the source; their conditions may differ.

For the compound `CCC(C)(C)c1cc(-n2nc3ccccc3n2)c(O)c(C(C)(C)CC)c1` [UV absorber B], the Solubility in data set [1] (setting [6]) was 24 grams/100 solvent; in data set [1] (setting [7]), 10 grams/100 solvent; in data set [1] (setting [8]), 4 grams/100 solvent; in data set [1] (butyl acetate) it was 27 grams/100 solvent; in data set [1] (methyl amyl ketone), 24 grams/100 solvent; in data set [1] (xylene), 54 grams/100 solvent. Further, the “Solubility in organic solvents (in words)” value (“Solubility … (in words)” below) in data set [1] is “clearly quite soluble even in the solvents other then xylene”. Besides, the volatility entry in data set [2] is listed as “too volatile for long term coating uses”. Also, the “photostability (in words)” value in data set [3] was “not as photostable as the UV absorbers D, E and F”. Besides, the ΔD in % in data set [3] (30 KJ exposure (kJ/cm^2)) is on record as 4%; in data set [3] (60 KJ exposure (kJ/cm^2)), 7%; in data set [3] (90 KJ exposure (kJ/cm^2)), 12%; in data set [3] (120 KJ exposure (kJ/cm^2)), 24%. Moreover, the “Dmax (maximum density in the range 330-380 nm)” value (from here on “Dmax”) in data set [3] turned out to be 2.1.
With `CCCCCCCCCCCCc1cc(C)cc(-n2nc3ccccc3n2)c1O` [B, 2(2-hydroxy-3-dodecyl-5-methylphenyl)-2H-benzotriazole], the “photostability (in words)” value in data set [3] is “not as photostable as the UV absorbers D, E and F”. Moreover, the ΔD in % in data set [3] (30 KJ exposure (kJ/cm^2)) amounted to 5%; in data set [3] (60 KJ exposure (kJ/cm^2)) it was 10%; in data set [3] (90 KJ exposure (kJ/cm^2)), 17%; in data set [3] (120 KJ exposure (kJ/cm^2)), 25%. For the same compound, the “Dmax” value in data set [3] is given as 2.1.
As to `CCCCCCCCCc1cc(-n2nc3ccccc3n2)c(O)c(C(C)(C)c2ccccc2)c1` [Example 4, 2-(2-Hydroxy-3-α-cumyl-5-nonylphenyl)-2H-benzotriazole], the Solubility in data set [1] (setting [6]), in data set [1] (setting [7]), in data set [1] (acetone), in data set [1] (butyl acetate), in data set [1] (methyl amyl ketone) and in data set [1] (xylene) was above 50 grams/100 solvent in each case.
Regarding `CC(C)(C)CC(C)(C)c1cc(-n2nc3ccccc3n2)c(O)c(C(C)(C)c2ccccc2)c1` [Example 7, 2-(2-hydroxy-3-α-cumyl-5-tert-octylphenyl)-2H-benzotriazole], the Solubility in data set [1] (setting [6]) was found to be 22 grams/100 solvent; in data set [1] (setting [7]), 14 grams/100 solvent; in data set [1] (setting [8]), 4 grams/100 solvent; in data set [1] (butyl acetate), 33 grams/100 solvent; in data set [1] (methyl amyl ketone) it was 33 grams/100 solvent; in data set [1] (xylene) it was 76 grams/100 solvent. Besides, the “Solubility … (in words)” value in data set [1] is reported as “soluble in environmentally friendly solvents”. The “flowability, meterability and storage stability” value in data set [4] (listed as compound of formula I) was “acceptable properties in respect to handling, apparent density, flowability, meterability and storage stability”. The volatility result in data set [2] is listed as “same low volatility”. The light stabilization effectiveness entry in data set [5] was “superior light stabilization effectiveness”.
Consider `CC(C)(C)CC(C)(C)c1cc(-n2nc3ccccc3n2)c(O)c(C(C)(C)c2ccccc2)c1` [E, 2(2-hydroxy-3-cumyl-5-tert-octylphenyl)-2H-benzotriazole], for which, in data set [1], the “Solubility … (in words)” value is “do not suffer from the solubility limitations of UV absorber D in non-HAPS solvents”. Besides, the ΔD in % in data set [3] (30 KJ exposure (kJ/cm^2)) is given as 3%; in data set [3] (60 KJ exposure (kJ/cm^2)) it was 4%; in data set [3] (90 KJ exposure (kJ/cm^2)), 5%; in data set [3] (120 KJ exposure (kJ/cm^2)) it was 7%. Also, the “Dmax” value in data set [3] came out at 2.0.
Turning to `CCC(C)c1cc(C(C)(C)C)cc(-n2nc3ccccc3n2)c1O` (stereo not drawn) [A, 2(2-hydroxy-3-sec-butyl-5-tert-butylphenyl)-2H-benzotriazole], the “photostability (in words)” value in data set [3] is “not as photostable as the UV absorbers D, E and F”. Besides, the ΔD in % in data set [3] (30 KJ exposure (kJ/cm^2)) came out at 4%; in data set [3] (60 KJ exposure (kJ/cm^2)), 8%; in data set [3] (90 KJ exposure (kJ/cm^2)), 16%; in data set [3] (120 KJ exposure (kJ/cm^2)) it was 25%. The “Dmax” value in data set [3] came to 2.0.
As for `CC(C)(C)CC(C)(C)c1cc(-n2nc3ccccc3n2)c(O)c(C(C)(C)c2ccccc2)c1` [Example 2, 2-(2-Hydroxy-3-α-cumyl-5-tert-octylphenyl)-2H-benzotriazole], the “flowability, meterability and storage stability” value in data set [4] (listed as Example 18) was “poor flowability, meterability and storage stability”.
Take `CCCCCCCCCCCCc1cc(-n2nc3ccccc3n2)c(O)c(C(C)(C)c2ccccc2)c1` [Example 10, 2-(2-Hydroxy-3-α-cumyl-5-dodecylphenyl)-2H-benzotriazole]: the Solubility in data set [1] (setting [6]), in data set [1] (setting [7]), in data set [1] (acetone), in data set [1] (butyl acetate), in data set [1] (methyl amyl ketone) and in data set [1] (xylene) was above 50 grams/100 solvent in each case. Besides, in data set [1], the “Solubility … (in words)” value is listed as “do not suffer from the solubility limitations of UV absorber D in non-HAPS solvents”. Further, the ΔD in % in data set [3] (30 KJ exposure (kJ/cm^2)) stood at 2%; in data set [3] (60 KJ exposure (kJ/cm^2)) it was 4%; in data set [3] (90 KJ exposure (kJ/cm^2)), 5%; in data set [3] (120 KJ exposure (kJ/cm^2)), 8%. The “Dmax” value in data set [3] was 1.9.
As for `CC(C)(c1ccccc1)c1cc(-n2nc3ccccc3n2)c(O)c(C(C)(C)c2ccccc2)c1` [UV absorber A, 2(2-hydroxy-3,5-di-cumylphenyl)-2H-benzotriazole], the Solubility in data set [1] (setting [6]) is given as 4 grams/100 solvent; in data set [1] (setting [7]), 3 grams/100 solvent; in data set [1] (butyl acetate), 6 grams/100 solvent; in data set [1] (methyl amyl ketone), 4 grams/100 solvent; in data set [1] (xylene), 14 grams/100 solvent. Besides, the “Solubility … (in words)” value in data set [1] (listed as 2-(2-hydroxy-3,5-di-α-cumylphenyl)-2H-benzotriazole) is given as “relatively insoluble; also recorded: sparingly soluble”; in data set [1] (listed as 2-[2-hydroxy-3,5-di(α-cumyl)phenyl]-2H-benzotriazole), “sparingly soluble in environmentally more friendly solvents”. Moreover, the “solubility in toluene or xylene” value in data set [1] (toluene or xylene) is reported as “about 14 % by weight”. Moreover, the “soluble at level in xylene” value in data set [1] (xylene) is reported as ~14 % (by weight). In data set [2], the volatility result was “excellent non-volatility”. In addition, in data set [3], the “photostability (in words)” value was “no more stable than are UV absorbers E and F”. The ΔD in % was 0% in data set [3] (30 KJ exposure (kJ/cm^2)) and 5% in data set [3] (60 KJ exposure (kJ/cm^2)). Moreover, the “Dmax” value in data set [3] stood at 1.9.
Regarding `CC(C)(C)CC(C)(C)c1cc(-n2nc3ccccc3n2)c(O)c(C(C)(C)c2ccccc2)c1` [Example 3, 2-(2-hydroxy-3-α-cumyl-5-tert-octylphenyl)-2H-benzotriazole], the “Ease and rate of dissolution” value in data set [1] (non-HAPS solvents) is “dissolves much more easily and rapidly in the non-HAPS solvents”. Moreover, the entries for the “Solubility … (in words)” value in data set [1] and in data set [1] (listed as amorphous modification) were “essentially the same solubility parameters in the various solvents as seen in Example 13 for the new crystalline modification” and “excellent solubility characteristics”, respectively.
